Among the test systems are A498; BT-549; COLO 205; EKVX; HCC 2998; HCT-15; HL-60; MCF7; MDA-MB-435; MOLT-4; NCI-H226; OVCAR-3; OVCAR-4; OVCAR-8; PC-3; RPMI-8226; SF-295; SN12C; TK-10; SNB-19.
Common to all, as to experiment: NCI-60 cell line screen, 48 h

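Five concentrations, 48 hours, 96-well plates. The concentration for 50% growth inhibition is given as GI50.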 Active and inactive are the calls of the source. Cut-off read from the data, not from the text of the source: active = GI50 up to about 1.1 µM and inactive = higher.

In the case of `[N-]=[N+]=Nc1cccc(-c2nnc(Cl)cc2O)c1`, the GI50 in the test with A498 was > 100 µM (inactive); in the test with BT-549 it was > 100 µM (inactive); in the test with COLO 205 it was > 100 µM (inactive); with EKVX, > 100 µM (inactive); in the test with HCC 2998, > 100 µM (inactive); in the test on HCT-15, greater than 100 µM. Also, the GI50 with HL-60, with MCF7, in the test with MDA-MB-435, with MOLT-4, in the test with NCI-H226 and with OVCAR-3 was > 100 µM (inactive) each time. Also, the GI50 in the test with OVCAR-4, with OVCAR-8, in the test on PC-3, with RPMI-8226, in the test with SF-295 and with SN12C was > 100 µM (inactive) throughout. The GI50 in the test with TK-10 was > 100 µM (inactive).

For `CCCCCCCCCCCCCC(=O)OC(/C=C/C(C)C)C(O)C(O)C(OC)C(=O)NC1CCCCN(C)C1=O` (stereo not drawn), the GI50 with A498 was 4.67 µM (inactive); in the test on BT-549, > 10 µM (inactive); in the test on COLO 205 it was 1.85 µM (inactive); with EKVX it was 9.06 µM (inactive); in the test on HCC 2998, 7.96 µM (inactive); in the test on HCT-15, 6 µM. Besides, the GI50 is 1.74 µM (inactive) with HL-60; 1.93 µM (inactive) with MCF7; 5.25 µM (inactive) in the test on MDA-MB-435; 2.7 µM (inactive) in the test with MOLT-4; 4.85 µM (inactive) in the test with NCI-H226; 5.12 µM (inactive) in the test with OVCAR-3. Also, the GI50 in the test on OVCAR-4 is 6.12 µM (inactive); in the test on OVCAR-8, 5.28 µM (inactive); in the test with PC-3 it was 7.48 µM (inactive); with RPMI-8226, 2.07 µM (inactive); in the test on SF-295, 3.95 µM (inactive); in the test with SN12C it was 3.23 µM (inactive). The GI50 with SNB-19 was 1.45 µM (inactive); in the test on TK-10, 7.05 µM (inactive).

On to `CC(C)(C)OC(=O)N1C[C@H](CC(=O)OCc2ccccc2)C[C@H]1C(=O)OCC(Cl)(Cl)Cl`, for which the GI50 in the test on A498 was 3.44 µM (inactive); in the test with BT-549, 8.15 µM (inactive); in the test with COLO 205 it was 3.18 µM (inactive); in the test with EKVX, 2.78 µM (inactive); in the test on HCC 2998, 10.7 µM (inactive); in the test with HCT-15, 3.27 µM. Besides, the GI50 with HL-60 is 2.68 µM (inactive); in the test on MCF7, 3.11 µM (inactive); in the test with MDA-MB-435, 5.31 µM (inactive); in the test with MOLT-4 it was 1.19 µM (inactive); in the test with NCI-H226, 3.55 µM (inactive); with OVCAR-3 it was 3.43 µM (inactive). In addition, the GI50 in the test with OVCAR-4 was 3.95 µM (inactive); in the test with OVCAR-8, 6.07 µM (inactive); in the test with PC-3, 2.17 µM (inactive); with SF-295, 2.38 µM (inactive); in the test with SN12C, 6.62 µM (inactive); in the test on SNB-19 it was 7.74 µM (inactive). In addition, the GI50 in the test with TK-10 was 15.9 µM (inactive).

As to `O=C(Oc1cc(=O)c(OC(=O)c2ccccc2)co1)c1ccccc1`, the GI50 was > 100 µM (inactive) in the test with A498; > 100 µM (inactive) with BT-549; > 100 µM (inactive) in the test on COLO 205; > 100 µM (inactive) in the test with HCC 2998; 42.6 µM in the test on HCT-15; 34.8 µM (inactive) in the test with HL-60. In addition, the GI50 with MCF7 was > 100 µM (inactive); in the test with MDA-MB-435, > 100 µM (inactive); in the test on MOLT-4 it was 33.3 µM (inactive); with NCI-H226, 85.3 µM (inactive); in the test with OVCAR-3 it was > 100 µM (inactive); in the test on OVCAR-4, 95.7 µM (inactive). The GI50 was > 100 µM (inactive) in the test on OVCAR-8; 91 µM (inactive) in the test on PC-3; 47.4 µM (inactive) with RPMI-8226; 51.1 µM (inactive) in the test on SF-295; 45.8 µM (inactive) in the test on SN12C; 92.7 µM (inactive) with SNB-19. Further, the GI50 in the test with TK-10 is > 100 µM (inactive).

Turning to `O=C1c2ccccc2-c2ccc(/N=[N+](/[O-])c3ccc4c(c3)C(=O)c3ccccc3-4)cc21`, the GI50 was > 100 µM (inactive) in the test on A498; > 100 µM (inactive) in the test on BT-549; > 100 µM (inactive) in the test with COLO 205; > 100 µM (inactive) in the test on EKVX; > 100 µM (inactive) in the test on HCC 2998; greater than 100 µM with HCT-15. In addition, the GI50 in the test with HL-60, in the test with MCF7, in the test on MDA-MB-435, in the test with MOLT-4, with NCI-H226 and in the test with OVCAR-3 was > 100 µM (inactive) each time. Also, the GI50 in the test on OVCAR-4, with OVCAR-8, in the test on PC-3, in the test on RPMI-8226, with SF-295 and with SN12C was > 100 µM (inactive) in each case. For the same compound, the GI50 with SNB-19 and in the test on TK-10 was > 100 µM (inactive) throughout.

`CCOC(=O)N1CCC2(CC1)CC(=O)N(Nc1ccccc1)C2=O`: the GI50 is > 100 µM (inactive) in the test with A498; > 100 µM (inactive) in the test on BT-549; > 100 µM (inactive) with COLO 205; > 100 µM (inactive) with EKVX; > 100 µM (inactive) in the test on HCC 2998; greater than 100 µM in the test on HCT-15. Further, the GI50 in the test with HL-60 is 28.9 µM (inactive); with MCF7 it was 90.6 µM (inactive); in the test with MDA-MB-435 it was 30.8 µM (inactive); with MOLT-4, > 100 µM (inactive); with NCI-H226, > 100 µM (inactive); in the test on OVCAR-3, > 100 µM (inactive). The GI50 was > 100 µM (inactive) with OVCAR-4; > 100 µM (inactive) in the test on OVCAR-8; 40.6 µM (inactive) with PC-3; > 100 µM (inactive) in the test with RPMI-8226; 40.3 µM (inactive) in the test with SF-295; > 100 µM (inactive) in the test with SN12C. Besides, the GI50 in the test on SNB-19 and with TK-10 was > 100 µM (inactive) throughout.

As to `N#Cc1c(NC(=S)NCc2ccccc2)sc2c1CCN(N1CCc3c(sc(NC(=S)NCc4ccccc4)c3C#N)C1)C2`, the GI50 in the test with A498 is > 100 µM (inactive); in the test with BT-549, > 100 µM (inactive); in the test on COLO 205 it was > 100 µM (inactive); in the test with EKVX it was > 100 µM (inactive); in the test on HCC 2998 it was > 100 µM (inactive); in the test with HCT-15 it was greater than 100 µM. In addition, the GI50 in the test on HL-60, in the test on MCF7, with MDA-MB-435, with MOLT-4, in the test on NCI-H226 and with OVCAR-3 was > 100 µM (inactive) each time. Besides, the GI50 in the test with OVCAR-4, with OVCAR-8, in the test on PC-3, in the test with SF-295, in the test with SN12C and in the test with SNB-19 was > 100 µM (inactive) each time. Moreover, the GI50 in the test on TK-10 is > 100 µM (inactive).

On to `Nc1nc2ccc(OCC(O)CN3CCCCC3)cc2[n+]([O-])n1` (stereo not drawn), for which the GI50 with A498 was > 100 µM (inactive); in the test with BT-549 it was > 100 µM (inactive); in the test on COLO 205 it was > 100 µM (inactive); in the test with HCC 2998 it was > 100 µM (inactive); with HCT-15, greater than 100 µM; in the test with HL-60, > 100 µM (inactive). Moreover, the GI50 with MCF7, with MDA-MB-435, in the test on MOLT-4, in the test on NCI-H226, in the test with OVCAR-3 and in the test with OVCAR-4 was > 100 µM (inactive) throughout. In addition, the GI50 in the test with OVCAR-8, in the test with PC-3, in the test on RPMI-8226, in the test with SF-295, in the test on SN12C and in the test with SNB-19 was > 100 µM (inactive) throughout. For the same compound, the GI50 in the test with TK-10 is > 100 µM (inactive).

As for `COc1cc(NCc2ccc3nc(N)nc(N)c3c2C)cc(OC)c1OC`, the GI50 was 2.39 µM (inactive) in the test on A498; 0.685 µM (active) with BT-549; 1.07 µM (active) in the test on COLO 205; 0.109 µM (active) in the test with HCC 2998; 0.025 µM in the test on HCT-15; 0.043 µM (active) with HL-60. Also, the GI50 in the test with MCF7 is 0.0308 µM (active); in the test with MDA-MB-435, 0.0365 µM (active); in the test on MOLT-4, 0.025 µM (active); in the test on NCI-H226, 11.4 µM (inactive); in the test on OVCAR-3 it was 0.288 µM (active); with OVCAR-4 it was 22.4 µM (inactive). Further, the GI50 is 0.0262 µM (active) in the test on OVCAR-8; 0.000383 µM (active) with PC-3; 0.0562 µM (active) in the test on RPMI-8226; 0.0308 µM (active) in the test on SF-295; 0.0316 µM (active) in the test on SN12C; 0.0597 µM (active) with SNB-19. The GI50 with TK-10 is 0.0105 µM (active).

For the compound `O=C1O[C@H]2[C@H](OC(=O)c3cc(O)c(O)c(O)c3)[C@@H](OC(=O)c3cc(O)c(O)c4c3[C@@H]3C1=CC(=O)C(O)(O)C3(O)O4)[C@H](OC(=O)c1cc(O)c(O)c(O)c1)O[C@@H]2COC(=O)c1cc(O)c(O)c(O)c1` (stereo partly drawn) [TERCHEBIN], the GI50 in the test with A498 was > 100 µM (inactive); in the test with BT-549, > 100 µM (inactive); in the test on COLO 205, 39.5 µM (inactive); with EKVX it was 39.4 µM (inactive); in the test on HCC 2998, 68.2 µM (inactive); in the test on HCT-15, 36.6 µM. For the same compound, the GI50 is 26.7 µM (inactive) with HL-60; 74.5 µM (inactive) in the test with MCF7; 38.4 µM (inactive) in the test with MDA-MB-435; 41.9 µM (inactive) in the test with MOLT-4; 35.7 µM (inactive) in the test with NCI-H226; 39.5 µM (inactive) with OVCAR-3. For the same compound, the GI50 is 32.9 µM (inactive) in the test on OVCAR-4; 39.3 µM (inactive) in the test with OVCAR-8; 34.9 µM (inactive) in the test on PC-3; 51.5 µM (inactive) with RPMI-8226; 48.4 µM (inactive) in the test with SF-295; > 100 µM (inactive) in the test with SN12C. The GI50 with SNB-19 was > 100 µM (inactive).

(Values after ChEMBL document CHEMBL1201862, “PubChem BioAssay data set” (2004).)
